Biological target: T1, Nuclear factor erythroid 2-related factor 2 (Mus musculus) (UniProt Q60795)
T1 sequence (whole entry): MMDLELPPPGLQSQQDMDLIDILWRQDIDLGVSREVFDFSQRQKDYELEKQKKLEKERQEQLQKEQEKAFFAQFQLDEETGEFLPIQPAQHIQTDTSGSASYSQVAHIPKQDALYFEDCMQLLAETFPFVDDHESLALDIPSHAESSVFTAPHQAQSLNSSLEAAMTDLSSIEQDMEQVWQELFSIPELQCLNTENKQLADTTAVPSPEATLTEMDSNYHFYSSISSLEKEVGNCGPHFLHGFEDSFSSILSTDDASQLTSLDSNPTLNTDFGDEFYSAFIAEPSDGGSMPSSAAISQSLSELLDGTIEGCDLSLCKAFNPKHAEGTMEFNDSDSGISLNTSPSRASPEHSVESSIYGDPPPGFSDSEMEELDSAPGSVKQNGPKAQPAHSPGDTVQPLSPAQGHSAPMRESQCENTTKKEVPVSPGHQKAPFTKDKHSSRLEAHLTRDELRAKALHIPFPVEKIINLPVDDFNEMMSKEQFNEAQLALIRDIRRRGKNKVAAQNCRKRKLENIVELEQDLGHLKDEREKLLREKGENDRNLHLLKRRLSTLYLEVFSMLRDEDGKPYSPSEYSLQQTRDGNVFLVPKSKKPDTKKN
Experiment: Activation of Nrf2 in mouse Hepa-1c1c7 cells assessed as concentration required to double specific activity of NQO1 incubated for 48 hrs
Type: cell-based

SMILES	pCD
C=C[C@]12C=C(C#N)C(=O)C=C1[C@@]1(C)C=C(C#N)C(=O)C(C)(C)[C@@H]1CC2	7.52
CC1(C)C(=O)C(C#N)=C[C@]2(C)C3=CC(=O)C=C[C@]3(C)CC[C@@H]12	6.8
CC#C[C@]12C=C(C#N)C(=O)C=C1[C@@]1(C)C=C(C#N)C(=O)C(C)(C)[C@@H]1CC2	8.12
C#CC12C=C(C#N)C(=O)C=C1CCC2 (configuration not stated)	7.25
C=CC1(C)C=CC(=O)C(C#N)=C1 (configuration not stated)	6.82
C#CC1(C=C)C=CC(=O)C(C#N)=C1 (configuration not stated)	7.7
CC1(C)C(=O)C(C#N)=C[C@]2(C)C3=CC(=O)C(C#N)=C[C@]3(C)CC[C@@H]12	7.74
CC1(C)C=CC(=O)C(C#N)=C1	6.82
C#CC12C=C(C#N)C(=O)C=C1C(C)(C)CC2 (configuration not stated)	7
C#CC1(C#C)C=CC(=O)C(C#N)=C1	6.74
CC#CC1(C)C=CC(=O)C(C#N)=C1 (configuration not stated)	7.48
C#CC1(CC)C=CC(=O)C(C#N)=C1 (configuration not stated)	7.38
C#CC1(C)C=C(C#N)C(=O)CC1 (configuration not stated)	7
CC1(C)C=C(C#N)C(=O)C(C)(C)C1	5.72
C#C[C@]12C=C(C#N)C(=O)C=C1[C@@]1(C)C=C(C#N)C(=O)C(C)(C)[C@@H]1CC2	9.04
C#CC1(C)C=CC(=O)C(C#N)=C1 (configuration not stated)	7.67
CC[C@]12C=C(C#N)C(=O)C=C1[C@@]1(C)C=C(C#N)C(=O)C(C)(C)[C@@H]1CC2	7.74
